The source of these data is patent US20240360114A1 (SIRONAX LTD., priority 2021, published 2024).

The test deals with HT-1080 cells. Put plainly: HT-1080 cell viability assay (ferroptosis induced by RSL3, Cell Titer-Glo). Conditions: Homo sapiens, HT-1080, 20 h, ferroptosis inducer RSL3, 20 hours, ferroptosis inhibitory activity, Table 3. The test is classed as cell-based. The method, boiled down:
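EC50 fitted by sigmoidal dose-response regression on luminescent viability data normalized to untreated cells. Compounds ran as a 10-point, 3-fold series from 1.1 μM alongside RSL3 for 20 hours, after overnight seeding.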
As to `C[C@@H]1CN(c2ccc3cc(NCC[C@H]4C[C@H](N)C4)ccc3c2)C[C@H](C)O1` [Compound 583, N-(2-((1r,3S)-3-aminocyclobutyl)ethyl)-6-((2S,6R)-2,6-dimethylmorpholino) naphthalen-2-amine], the EC50 (in general, the midpoint of the concentration-response curve) lay within 0.1 to 100 nM.
`NC(=O)C1CC2(CC(Nc3ccc4cc(N5CCC(C(F)(F)F)CC5)ccc4c3)C2)C1` (stereo not drawn) [Compound 584, 6-((6-(4-(trifluoromethyl)piperidin-1-yl)naphthalen-2-yl)amino)spiro[3.3]heptane-2-carboxamide] yielded an EC50 of 0.1 to 100 nM.
The molecule `Cc1nc(N2C[C@@H](C)O[C@@H](C)C2)ccc1NC1C2CC3CC1CC(CNCCO)(C3)C2` (stereo partly drawn) [Compound 585] displayed an EC50 of 0.1 to 100 nM.
The figure for `N[C@H]1CC[C@H](CNc2ccc(N3CCN(CC(F)(F)F)CC3)cc2F)CC1` [Compound 586, N-(((1r,4r)-4-aminocyclohexyl)methyl)-2-fluoro-4-(4-(2,2,2-trifluoroethyl)piperazin-1-yl)aniline] is 0.1 to 100 nM; for `Cc1nc(N2C3CCC2CC3)ccc1NC1CC2(CC(N)C2)C1` (stereo not drawn) [Compound 587, N2-(6-(7-azabicyclo[2.2.1]heptan-7-yl)-2-methylpyridin-3-yl)spiro[3.3]heptane-2,6-diamine] it is 100 to 1000 nM; for `Cc1nc(N2CC(C)OC(C(F)(F)F)C2)ccc1NC1CC2(CC(N)C2)C1` (stereo not drawn) [Compound 588] it is 0.1 to 100 nM.
The molecule `Cc1nc(N2CC(C)(C)OC(C)(C)C2)ccc1NC1CC2(CC(NCC(F)(F)F)C2)C1` (stereo not drawn) [Compound 589] returned an EC50 of 0.1 to 100 nM.
The molecule `CCC1CN(c2ccc(NC3C4CC5CC3CC(C(N)=O)(C5)C4)c(C)n2)CCO1` (stereo not drawn) [Compound 590] gave an EC50 of 100 to 1000 nM.
The figure for `COC(C)(C)C1CCN(c2ccc(NC3CC(N)C3)c(C)n2)CC1` (stereo not drawn) [Compound 591] is 100 to 1000 nM; for `NC1CC(Nc2ccc3nc(N4CCC(C(F)(F)F)CC4)ccc3c2)C1` (stereo not drawn) [Compound 592, N1-(2-(4-(trifluoromethyl)piperidin-1-yl)quinolin-6-yl)cyclobutane-1,3-diamine] it is 0.1 to 100 nM.
Take `NC1CC(Nc2ccc3cc(N4CCN(CC(F)(F)F)CC4)ccc3c2)C1` (stereo not drawn) [Compound 593, N^1-(6-(4-(2,2,2-trifluoroethyl)piperazin-1-yl)naphthalen-2-yl)cyclobutane-1,3-diamine]: the EC50 was 0.1 to 100 nM.
The value for `Cc1nc(N2CCC(C3CC(C)OC(C)C3)CC2)ccc1NC1CC2(CC(N)C2)C1` (stereo not drawn) [Compound 594, N^2-(6-(4-(2,6-dimethyltetrahydro-2H-pyran-4-yl)piperidin-1-yl)-2-methylpyridin-3-yl)spiro[3.3]heptane-2,6-diamine] was 0.1 to 100 nM.
On to `Cc1nc(NC(C)(C)C)ccc1NC[C@H]1CC[C@H](N)CC1` [Compound 595, N^5-(((1r,4r)-4-aminocyclohexyl)methyl)-N^2-(tert-butyl)-6-methylpyridine-2,5-diamine], for which the EC50 was in the range of 0.1 to 100 nM.
`Cc1nc(NC(C)(C)C)ccc1NC1CC2(CC(N)C2)C1` (stereo not drawn) [Compound 596, N^5-(6-aminospiro [3.3]heptan-2-yl)-N^2-(tert-butyl)-6-methylpyridine-2,5-diamine] gave an EC50 of 0.1 to 100 nM.
On to `Cc1cc(NC(C)(C)C)ccc1NC[C@H]1CC[C@H](N)CC1` [Compound 597, N^1-(((1r,4r)-4-aminocyclohexyl)methyl)-N^4-(tert-butyl)-2-methylbenzene-1,4-diamine], for which the EC50 fell in the range of 0.1 to 100 nM.
The figure for `Cc1nc(N2CC(C)OC(C(F)(F)F)C2)ccc1NC[C@H]1CC[C@@H](N)CC1` (stereo partly drawn) [Compound 598, N-(((1s,4s)-4-aminocyclohexyl)methyl)-2-methyl-6-(2-methyl-6-(trifluoromethyl)morpholino)pyridin-3-amine] is 0.1 to 100 nM; for `Cc1nc(N2CCC(C(C)(C)O)CC2)ccc1NC1CC2(CC(N)C2)C1` (stereo not drawn) [Compound 599] it is 100 to 1000 nM; for `CC(=O)N1C(C)CN(c2ccc(NC3CC4(CC(N)C4)C3)c(C)n2)CC1C` (stereo not drawn) [Compound 600] it is 100 to 1000 nM.
As for `CN(C)c1ccc2cc(NC3CC4(CC(N)C4)C3)ccc2c1` (stereo not drawn) [Compound 601, N2-(6-aminospiro[3.3]heptan-2-yl)-N^6,N^6-dimethylnaphthalene-2,6-diamine], the EC50 fell in the range of 0.1 to 100 nM.
In turn, `Cc1nc(N2CCC(C)(C)CC2)ccc1NC1CC2(CC(N)C2)C1` (stereo not drawn) [Compound 602, N2-(6-(4,4-dimethylpiperidin-1-yl)-2-methylpyridin-3-yl)spiro[3.3]heptane-2,6-diamine] yielded an EC50 of 0.1 to 100 nM.
On to `Cc1nc(N2CCN(CC(F)(F)F)C(C)C2)ccc1NC1CC2(CC(NC(N)=O)C2)C1` (stereo not drawn) [Compound 603], for which the EC50 lay within 0.1 to 100 nM.
`CC1CN(c2ccc(NC3CC(N)C3)cc2F)CC(C)N1CC(F)(F)F` (stereo not drawn) [Compound 604, N1-(4-(3,5-dimethyl-4-(2,2,2-trifluoroethyl)piperazin-1-yl)-3-fluorophenyl)cyclobutane-1,3-diamine] returned an EC50 of 0.1 to 100 nM.
For `CNC1CC2(C1)CC(Nc1ccc(N3C[C@@H](C)O[C@@H](C)C3)nc1C)C2` (stereo partly drawn) [Compound 605, N^2-(6-((2R,6S)-2,6-dimethylmorpholino)-2-methylpyridin-3-yl)-N^6-methylspiro [3.3]heptane-2,6-diamine], the EC50 fell in the range of 0.1 to 100 nM.
The value for `Cc1nc(N2CCN(C)C(C(F)(F)F)C2)ccc1NC1CC2(CC(N)C2)C1` (stereo not drawn) [Compound 606, N2-(2-methyl-6-(4-methyl-3-(trifluoromethyl)piperazin-1-yl)pyridin-3-yl)spiro[3.3]heptane-2,6-diamine] was 0.1 to 100 nM; that for `CC(=O)N1CCN(CCNc2ccc(N3CC(C)OC(C)C3)nc2C)CC1` (stereo not drawn) [Compound 607, 1-(4-(2-((6-(2,6-dimethylmorpholino)-2-methylpyridin-3-yl)amino)ethyl)piperazin-1-yl)ethan-1-one] was 100 to 1000 nM.
In the case of `Cc1nc(N2CC[Si](C)(C)CC2)ccc1NC1CC(N)C1` (stereo not drawn) [Compound 608, N1-(6-(4,4-dimethyl-1,4-azasilinan-1-yl)-2-methylpyridin-3-yl)cyclobutane-1,3-diamine], the EC50 lay within 0.1 to 100 nM.
`CCCc1nc(N2C[C@@H](C)O[C@@H](C)C2)ccc1NC1CC2(CC(N)C2)C1` (stereo partly drawn) [Compound 609, N2-(6-((2S, 6R)-2,6-dimethylmorpholino)-2-propylpyridin-3-yl)spiro[3.3]heptane-2,6-diamine] showed an EC50 of 0.1 to 100 nM.
`CC1CN(c2ccc3cc(NC4CC5(CC(O)C5)C4)ccc3c2)CC(C)N1CC(F)(F)F` (stereo not drawn) [Compound 610] had a concentration for a half-maximal effect (EC50) of 0.1 to 100 nM.
In the case of `Cc1nc(N2CCN(C(=O)C(F)(F)F)C(C)C2)ccc1NC1CC2(CC(N)C2)C1` (stereo not drawn) [Compound 611, 1-(4-(5-((6-aminospiro[3.3]heptan-2-yl)amino)-6-methylpyridin-2-yl)-2-methylpiperazin-1-yl)-2,2,2-trifluoroethan-1-one], the EC50 fell in the range of 0.1 to 100 nM.
Molecule `Cc1cc(NC2CC(N)C2)ccc1N1CC(C)N(CC(F)(F)F)C(C)C1` (stereo not drawn) [Compound 612, N1-(4-(3,5-dimethyl-4-(2,2,2-trifluoroethyl)piperazin-1-yl)-3-methylphenyl)cyclobutane-1,3-diamine] returned an EC50 of 0.1 to 100 nM.
In turn, `CC(C)c1nc(N2C[C@@H](C)O[C@@H](C)C2)ccc1NC1CC2(CC(N)C2)C1` (stereo partly drawn) [Compound 613, N^2-(6-((2S, 6R)-2,6-dimethylmorpholino)-2-isopropylpyridin-3-yl)spiro[3.3]heptane-2,6-diamine] yielded a concentration giving a half-maximal response (EC50) of 0.1 to 100 nM.
`NC1CC2(C1)CC(Nc1ccc3cc(N4CCOCC4)ccc3c1)C2` (stereo not drawn) [Compound 614, N2-(6-morpholinonaphthalen-2-yl)spiro[3.3]heptane-2,6-diamine] gave an EC50 of 0.1 to 100 nM.
The figure for `Cc1nc(N2CC[Si](C)(C)CC2)ccc1NC1CC2(C1)CC(C(N)=O)C2` (stereo not drawn) [Compound 615, 6-((6-(4,4-dimethyl-1,4-azasilinan-1-yl)-2-methylpyridin-3-yl)amino)spiro[3.3]heptane-2-carboxamide] is 0.1 to 100 nM.
The molecule `Cc1nc(N(C)CCNCC(F)(F)F)ccc1NC1CC2(CC(N)C2)C1` (stereo not drawn) [Compound 616, N^5-(6-aminospiro [3.3]heptan-2-yl)-N^2,6-dimethyl-N2-(2-((2,2,2-trifluoroethyl)amino)ethyl) pyridine-2,5-diamine] had an EC50 of 0.1 to 100 nM.
In turn, `Cc1nc(N2CCC(C)(C)CC2)ccc1NC[C@H]1CC[C@H](N)CC1` [Compound 617, N-(((1r,4r)-4-aminocyclohexyl)methyl)-6-(4,4-dimethylpiperidin-1-yl)-2-methylpyridin-3-amine] showed an EC50 of 0.1 to 100 nM.
The molecule `CC[C@@H]1CN(c2ccc(N[C@H]3C[C@@H](N)C3)c(C)n2)C[C@H](C)O1` [Compound 618, (1s,3S)-N1-(6-((2R,6S)-2-ethyl-6-methylmorpholino)-2-methylpyridin-3-yl)cyclobutane-1,3-diamine] displayed an EC50 of 100 to 1000 nM.
Regarding `Cc1nc(N2CC(C)N(CC(F)(F)F)C(C)C2)ccc1NC1CC(N)C1` (stereo not drawn) [Compound 619], the EC50 fell in the range of 0.1 to 100 nM.
`NC1CC2(C1)CC(Nc1ccc3cc(N4CCC(O)(C(F)(F)F)CC4)ccc3c1)C2` (stereo not drawn) [Compound 620, 1-(6-((6-aminospiro[3.3]heptan-2-yl)amino)naphthalen-2-yl)-4-(trifluoromethyl)piperidin-4-ol] displayed an EC50 of 0.1 to 100 nM.
Molecule `Cc1nc(N2C[C@@H](C)O[C@@H](C)C2)ccc1NCC12C3C4C1C1C2C3C41CN` (stereo partly drawn) [Compound 621, N-((4-(aminomethyl)cuban-1-yl)methyl)-6-((2S,6R)-2,6-dimethylmorpholino)-2-methylpyridin-3-amine] showed an EC50 of 0.1 to 100 nM.
`Cc1cc(NC[C@H]2CC[C@H](N)CC2)ccc1NC(C)(C)C` [Compound 622, N^4-(((1r,4r)-4-aminocyclohexyl)methyl)-N′-(tert-butyl)-2-methylbenzene-1,4-diamine] gave an EC50 of 0.1 to 100 nM.
`Cc1nc(N2CCOC3(CC3)C2)ccc1NC1CC2(CC(N)C2)C1` (stereo not drawn) [Compound 623, N^2-(2-methyl-6-(4-oxa-7-azaspiro[2.5]octan-7-yl)pyridin-3-yl)spiro[3.3]heptane-2,6-diamine] came in with an EC50 of 0.1 to 100 nM.
Turning to `Cc1nc(N2CC(C)OC(C)C2)ccc1NC1CCC2(CC1)CC(N)C2` (stereo not drawn) [Compound 624, N^7-(6-(2,6-dimethylmorpholino)-2-methylpyridin-3-yl)spiro[3.5]nonane-2,7-diamine], the EC50 was 0.1 to 100 nM.
